# Assay results reported in PMC7144325, “Discovery of novel ATAD2 bromodomain inhibitors that trigger apoptosis and autophagy in breast cells by structure-based virtual screening” (Journal of Enzyme Inhibition and Medicinal Chemistry, 2020).
# Entries after “also recorded” stand apart in the source; their conditions may differ. Like-named read-outs stand apart in the source and are kept apart here.
# What was measured:
# ATAD2 bromodomain [1] = target: T1, ATAD2 bromodomain (Homo sapiens, UniProt Q6PL18); experiment: TR-FRET assay, ATAD2 bromodomain; format: binding
# T1 sequence (Q6PL18 980-1092 limits assumed): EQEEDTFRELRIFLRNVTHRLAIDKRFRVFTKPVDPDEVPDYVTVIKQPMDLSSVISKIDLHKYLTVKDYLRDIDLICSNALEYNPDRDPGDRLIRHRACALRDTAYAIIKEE
# Method: (§1) The assay was performed by TR-FRET technology using recombinant bromodomain and BET Ligand[27]. The compounds were diluted in 100% DMSO. They were diluted 20 fold in 5% DMSO in Reaction Buffer and 2 µl of the dilution was added to a 20 µl reaction. The reaction mixture incubated for 180 min prior to reading the TR-FRET signal. TR-FRET was recorded as the ratio of the fluorescence of the acceptor and the donor dyes (acceptor/donor). Binding experiments were performed in duplicate at each concentration. The TR-FRET data were analysed using the computer software, Graphpad Prism.
# MDA-MB-231 cells [2] = experiment: Cell viability assay (MTT), MDA-MB-231; format: cell-based; conditions: for antiproliferatory inhibition rate in cell viability assay: at 20 µM, MDA-MB-231 cells; for IC50: Homo sapiens, MDA-MB-231, MTT, read-out: IC50 antiproliferative, MDA-MB-231
# Method: MDA-MB-231cells were purchased from American Type Culture Collection (ATCC, Manassas, VA, USA). Cells were cultured in DMEM with 10% foetal bovine serum and incubated with 5% CO2. Antibodies used in this study were as follow: ATAD2 (ab176319, abcam), c-Myc (ab32072, abcam), cMyc^Ser62 (ab51156, abcam), Bax(5023, CST), Bcl-2(15071, CST), caspase8(9746, CST), caspase-3 (9665, CST), AKT (4691, CST), mTOR (2983, CST), p-mTOR^Ser2448 (5536,CST), ULK1 (6439, CST), p-ULK1^Ser555 (5869, CST), p62 (5114, CST), Beclin1 (4122, CST), LC3B (3868, CST), β-actin (3700, CST).
# (§2) Cells were dispensed in 96-well plates at a density of 5 × 10^4 cells/ml. After 24 h incubation, cells were treated with different concentrations of compounds for the indicated periods. Cell viability was measured by the MTT assay.
# [3] = tested on: Bax, Bcl-2, Caspase8, Caspase3 in MDA-MB-231 cells; experiment: Western blot of Bax, Bcl-2, Caspase8 and Caspase3; format: cell-based; conditions: MDA-MB-231, 1.25, 2.5 and 5 μM, 24 h
# Method: (§3) Adherent and floating cells were collected after treatment with AM879 for indicated times. Cells were lysed in a lysis buffer consisting of Hepes 50 mM pH 7.4, Triton-X-100 1%, sodium orthovanada 2 mM, sodium fluoride 100 mM, edetic acid 1 mM, PMSF 1 mM, aprotinin (Sigma, MO, USA) 10 mg/L and leupeptin (Sigma) 10 mg/L at 4 °C for 1 h. After 12,000 rpm centrifugation for 15 min, the protein content of supernatant was determined by the Bio-Rad DC protein assay (Bio-Rad Laboratories, Hercules, CA, USA). Equal amounts of the total protein were separated by 10–15% SDS-PAGE and transferred to PVDF membranes, and the membranes were soaked in blocking buffer (5% skimmed milk or BSA). Proteins were detected using primary antibodies, followed by HRP-conjugated secondary antibody and visualised by using ECL as the HRP substrate. Quantity One 4.4 was used to quantify.
# MDA-MB-231 cells [4] = experiment: Autophagy assay, GFP/mRFP-LC3 puncta; format: cell-based; conditions: MDA-MB-231, GFP-mRFP-LC3, 24 h
# BRD4(2) = target: T2, BRD4(2) (Homo sapiens, UniProt O60885); experiment: TR-FRET assay, BRD4(2); format: binding
# T2 construct: against the first and second bromodomains of BRD2, BRD3 and BRD4
# Method: as §1
# [5] = tested on: MDA-MB-231, MDA-MB-436, MDA-MB-468, BT474 and MCF-7 cells; experiment: Anti-proliferation activity on breast cancer cell panel (MTT); format: cell-based; conditions: MDA-MB-231, MDA-MB-436, MDA-MB-468, BT474 and MCF-7 cells (Figure S1)
# Method: as §2
# BRD3(2) = target: T3, BRD3(2) (Homo sapiens, UniProt Q15059); experiment: TR-FRET assay, BRD3(2); format: binding
# T3 construct: against the first and second bromodomains of BRD2, BRD3 and BRD4
# T3 sequence (Q15059 306-415 limits assumed): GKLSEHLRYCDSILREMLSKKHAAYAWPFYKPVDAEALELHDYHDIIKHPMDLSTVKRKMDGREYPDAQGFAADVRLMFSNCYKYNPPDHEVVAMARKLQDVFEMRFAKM
# Method: as §1
# [6] = tested on: PI3K-AKT-mTOR signalling in MDA-MB-231 cells; experiment: Western blot of PI3K-AKT-mTOR signalling; format: cell-based; conditions: MDA-MB-231, 1.25, 2.5, 5 µM, 24 h
# Method: as §3
# BRD2(1) = target: T4, BRD2(1) (Homo sapiens, UniProt P25440); experiment: TR-FRET assay, BRD2(1); format: binding
# T4 construct: against the first and second bromodomains of BRD2, BRD3 and BRD4
# T4 sequence (P25440 74-180 limits assumed): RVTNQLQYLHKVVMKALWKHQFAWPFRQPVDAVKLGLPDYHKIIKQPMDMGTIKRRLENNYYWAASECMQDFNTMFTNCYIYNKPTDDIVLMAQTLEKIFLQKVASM
# Method: as §1
# MDA-MB-231 cells [7] = experiment: Apoptosis assay, flow cytometry of Annexin-V/PI double staining; format: cell-based; conditions: MDA-MB-231, 1.25, 2.5 and 5 μM, 24 h
# BRD2-4 = experiment: TR-FRET selectivity, statement for BRD2, BRD3 and BRD4 together; format: binding; conditions: first and second bromodomains
# Method: as §1
# [8] = tested on: ATAD2, c-Myc, p-cMyc in MDA-MB-231 cells; experiment: Western blot of ATAD2, c-Myc and p-cMyc; format: cell-based; conditions: MDA-MB-231, 1.25, 2.5 and 5.0 µM, 24 h
# Method: as §3
# [9] = tested on: ULK1, p-ULK1, Beclin 1, p62, LC3 in MDA-MB-231 cells; experiment: Western blot of ULK1, p-ULK1, Beclin 1, SQSTM1/p62 and LC3; format: cell-based; conditions: MDA-MB-231, 1.25, 2.5, 5 µM, 24 h
# Method: as §3
# MDA-MB-231 cells [10] = experiment: TUNEL apoptosis assay; format: cell-based; conditions: MDA-MB-231, 2.5 μM, 24 h
# Method: TUNEL staining was also used to detect cell apoptosis. Cells were treated with DMSO or AM879 and then formalin-fixed.
# BRD4(1) = target: T5, BRD4(1) (Homo sapiens, UniProt O60885); experiment: TR-FRET assay, BRD4(1); format: binding
# T5 construct: against the first and second bromodomains of BRD2, BRD3 and BRD4
# Method: as §1
# BRD3(1) = target: T6, BRD3(1) (Homo sapiens, UniProt Q15059); experiment: TR-FRET assay, BRD3(1); format: binding
# T6 construct: against the first and second bromodomains of BRD2, BRD3 and BRD4
# T6 sequence (Q15059 34-140 limits assumed): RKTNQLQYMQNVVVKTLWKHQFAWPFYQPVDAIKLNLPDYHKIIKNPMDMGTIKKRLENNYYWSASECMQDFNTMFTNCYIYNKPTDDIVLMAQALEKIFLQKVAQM
# Method: as §1
# BRD2(2) = target: T7, BRD2(2) (Homo sapiens, UniProt P25440); experiment: TR-FRET assay, BRD2(2); format: binding
# T7 construct: against the first and second bromodomains of BRD2, BRD3 and BRD4
# T7 sequence (P25440 344-453 limits assumed): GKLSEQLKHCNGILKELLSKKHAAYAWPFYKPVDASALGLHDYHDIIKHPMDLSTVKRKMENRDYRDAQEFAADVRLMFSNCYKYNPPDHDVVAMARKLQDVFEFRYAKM
# Method: as §1
# [11] = set-up: method as in PMID 29043777, PMID 30226378, PMID 31398032; conditions: in vitro or vivo cellular assays; cited from earlier work
# [12] = set-up: method as in PMID 27530368; conditions: in vivo as printed; cited from earlier work
# BET = tested on: BET; set-up: method as in PMID 26230603; conditions: ATAD2 over BET; cited from earlier work
# ATAD2 bromodomain [13] = target: T1, ATAD2 bromodomain; conditions: cited from earlier work
smiles,measurement,setting,value
CCn1c(SCC(C)=O)nc2c1c(=O)[nH]c(=O)n2C [AG-690],inhibition at 20 µM,"ATAD2 bromodomain [1]; at 20 µM, read-out: ATAD2 enzyme inhibition rate",79%
same,antiproliferatory inhibition rate in cell viability assay,MDA-MB-231 cells [2],less potency than AM879
CC1=C(C#N)c2nc(N)c(C#N)c(C)c2/C1=C\c1ccc(-c2cc(C(=O)O)ccc2Cl)o1 [AM879],"expression of Bax, Bcl-2, Caspase8 and Caspase3",[3],"elevated the expression of Bax, reduced the expression of Bcl-2, accompanied with the cleavage of caspase3 and caspase8"
same,autophagy induction (LC3 puncta),MDA-MB-231 cells [4],obvious aggregation of LC3 puncta
same,autophagy induction (LC3 puncta),MDA-MB-231 cells [4]; listed as AM978,induce autophagy
same,IC50,BRD4(2),> 50 µM
same,anti-proliferation activity on breast cancer cells,[5],potent antiproliferatory activity
same,IC50,BRD3(2),> 50 µM
same,PI3K-AKT-mTOR signalling protein expression,[6],"obviously downregulated expression of PI3K, AKT, mTOR and mTOR^Ser2448"
same,IC50,BRD2(1),> 50 µM
same,apoptotic cells by Annexin-V/PI staining,MDA-MB-231 cells [7],significant increase in early and late apoptotic cells
same,inhibitory activity against BRD2-4,BRD2-4,no inhibitory activity
same,inhibitory activity against BRD2-4,BRD2-4; listed as AM-879,no activity
same,"expression of ATAD2, c-Myc and p-cMyc",[8],"suppressed the expression of c-Myc; also recorded: inhibited the expression of ATAD2, c-Myc and the phosphorylation of c-Myc"
same,IC50,"ATAD2 bromodomain [1]; Table 3, read-out: IC50 ATAD2",3.56 µM
same,"expression of ULK1, p-ULK1, Beclin 1, SQSTM1/p62 and LC3-II",[9],"elevation of ULK1, p-ULK1, Beclin 1 and LC3-II in a dose-dependent manner, as well as degradation of SQSTM1/p62"
same,IC50,MDA-MB-231 cells [2]; 24 h,2.43 µM
same,IC50,MDA-MB-231 cells [2]; 48 h,2.06 µM
same,IC50,MDA-MB-231 cells [2]; 72 h,1.05 µM
same,antiproliferatory inhibition rate in cell viability assay,MDA-MB-231 cells [2],90%
same,apoptosis by TUNEL assay,MDA-MB-231 cells [10],obvious FITC fluorescence were aggregated in the nucleus
same,IC50,BRD4(1),> 50 µM
same,IC50,BRD3(1),> 50 µM
same,IC50,BRD2(2),> 50 µM
"COc1cc(Cl)c(C(=O)N[C@@H](CN[C@H]2CC[C@@H](N)CC2)Cc2ccc(C#N)cc2)cc1-c1ccc(CN[C@H](C)c2ccc(C)cc2)o1 [BAY-850, reference compound]",IC50,ATAD2 bromodomain [1]; read-out: IC50 against ATAD2 bromodomain,0.242 µM
same,activity in cellular assays,[11],lack activity
CO[C@H]1CNC[C@@H](OCC2CCC(F)(F)CC2)[C@@H]1Nc1ncc(-c2cncc(C)c2)c2cc(C)c(=O)[nH]c12 [GSK8814],antiproliferative activity,[12],weak antiproliferative
CC1(C2CC2)NC(=O)N(CC(=O)Nc2ccc(Br)c(S(=O)(=O)N3CCCCC3)c2)C1=O (stereo not shown) [compound 23],activity in cellular assays,[11],lack activity
Cc1ccc(-c2cnc(NC3CC4CCC(N4)C3CCC3CCC(F)(F)CC3)c3[nH]c(=O)c(C)cc23)cn1 (stereo not shown) [compound 26],activity in cellular assays,[11],lack activity
Cc1cncc(-c2cnc(N[C@@H]3CCNC[C@H]3OCC3CCS(=O)(=O)CC3)c3[nH]c(=O)c(C)cc23)c1 [compound 38],BET selectivity,BET,100 fold
same,ATAD2 potency,ATAD2 bromodomain [13],0.1 µM
